Experimental findings from ChEMBL document CHEMBL1136519, “Indole amide hydroxamic acids as potent inhibitors of histone deacetylases” (Bioorg Med Chem Lett, 2003) are described below.

Molecules are shown by their SMILES.

The subject of one test is HT-1080. Kind of test: Antiproliferative activity against HT1080 (human fibrosarcoma) cell line. The class given is functional, cell-based.
Test [1] concerns the target Histone deacetylase (HDAC1 and HDAC2) (Homo sapiens, UniProt Q13547+Q92769). In words: Inhibitory activity was tested against histone deacetylase (HDAC). The class given is protein assay.
The next test deals with MDA-MB-435. Kind of test: cells. The class given is functional, cell-based. The conditions noted are these: Homo sapiens.
The subject of test [2] is Mus musculus. In words: Antitumor activity against HT1080 cell line in mouse xenograft model after orally dosed once every other day at 100 mg/kg. The class given is functional. As to conditions: HT-1080, route oral.
Test [3] relates to Mus musculus. In words: Antitumor activity against HT1080 cell line in mouse xenograft model after orally dosed once every other day at 30 mg/kg. The class given is functional. The conditions noted are these: HT-1080, route oral.

Description for MDA-MB-435: Antiproliferative activity against MDA-435 (human breast carcinoma) cell line.

Consider `COc1cccc2[nH]c(C(=O)NCCCCCCC(=O)NO)cc12`, for which the figures for the IC50 (in the test with HT-1080; in test [1]; in the test on MDA-MB-435) were 120 nM, 3.1 nM and 130 nM, respectively.

Take `O=C(CCCCCCNC(=O)c1cc2ccccc2o1)NO`: the figures for the IC50 (in the test with HT-1080; in test [1]; in the test with MDA-MB-435) were 760 nM, 29.6 nM and 490 nM, respectively.

Consider `COc1ccc2oc(C(=O)NCCCCCCC(=O)NO)cc2c1`, for which the IC50 (usually the concentration at which inhibition is half-maximal) in the test on HT-1080 turned out to be 380 nM; in test [1] it was 15 nM; in the test with MDA-MB-435, 300 nM.

Turning to `O=C(CCCCCCNC(=O)c1cc2ccccc2[nH]1)NO`, in test [1], the IC50 is 14.6 nM. In addition, the inhibition in vivo – broadly, the percentage by which the read-out fell short of the control – at 100 mg/kg with Mus musculus [2] was found to be 39%. In the test on Mus musculus [3], this molecule gave an inhibition in vivo at 30 mg/kg of 36%.

With `O=C(CCCCCCNC(=O)c1ccccn1)NO`, the IC50 in test [1] was 1680 nM.

Regarding `Cn1cc(C(=O)NCCCCCCC(=O)NO)c2ccccc21`, the IC50 turned out to be 780 nM in the test on HT-1080, 56 nM in test [1] and 390 nM in the test with MDA-MB-435.

For the molecule `O=C(CCCCCCNC(=O)c1ccc2[nH]ccc2c1)NO`, the IC50 in test [1] turned out to be 31.4 nM.

`O=C(CCCCCNC(=O)c1cc2ccccc2[nH]1)NO` had an IC50 in test [1] of 12.5 nM. Against the preceding molecule, the IC50 is about 2.5-fold lower.

For `O=C(CCCCCCNC(=O)c1cc2cc(Cl)ccc2o1)NO`, the IC50 in the test on HT-1080 was determined as 180 nM; in test [1], 15 nM; in the test with MDA-MB-435, 190 nM.

For the molecule `O=C(CCCCCCNC(=O)c1cn(-c2ccccc2)c2ccccc12)NO`, the IC50 was 2500 nM in the test with HT-1080, 3.5 nM in test [1] and 760 nM with MDA-MB-435.

On to `Cn1c(C(=O)NCCCCCCC(=O)NO)cc2ccccc21`, for which the IC50 in the test on HT-1080 was 840 nM; in test [1], 47 nM; with MDA-MB-435, 610 nM.

On to `O=C(CCCCCCNC(=O)c1cn(Cc2ccccc2)c2ccccc12)NO`, for which the results for the IC50 (in the test on HT-1080; in test [1]; in the test with MDA-MB-435) were 1900 nM, 12 nM and 850 nM, respectively.

As to `COc1cc(OC)c2cc(C(=O)NCCCCCCC(=O)NO)[nH]c2c1`, the IC50 is 260 nM with HT-1080, 3.1 nM in test [1] and 600 nM in the test on MDA-MB-435.

For `O=C(CCCCCCNC(=O)c1ccc[nH]1)NO`, the IC50 in test [1] is 524 nM.

In test [1], `O=C(CCCCCNC(=O)c1c[nH]c2ccccc12)NO` had an IC50 of 39.8 nM.

Consider `CC1c2ccccc2CC1C(=O)NCCCCCCC(=O)NO` (stereo not given), for which the IC50 in test [1] was determined as 732 nM.

`O=C(CCCCCCNC(=O)c1cc2cc(OCc3ccccc3)ccc2[nH]1)NO`: the IC50 in the test on HT-1080 amounted to 1500 nM; in test [1], 13.6 nM; with MDA-MB-435, 800 nM.

Regarding `O=C(CCCCCCNC(=O)c1c[nH]c2ccccc12)NO`, the IC50 in test [1] is on record as 37.5 nM.

Take `O=C(CCCCCNC(=O)c1cccc2[nH]ccc12)NO`: in test [1], the IC50 was 87.6 nM.

As for `O=C(CCCCCCNC(=O)c1cn(-c2ccc(Br)cc2)c2ccccc12)NO`, the IC50 in the test with HT-1080 was found to be 490 nM; in test [1], 18.9 nM; in the test on MDA-MB-435 it was 340 nM.

Turning to `O=C(CCCCCCNC(=O)c1cn(-c2ccc(F)cc2)c2ccccc12)NO`, the IC50 was found to be 990 nM in the test with HT-1080, 11.8 nM in test [1] and 380 nM in the test with MDA-MB-435.

With `COc1ccc2[nH]c(C(=O)NCCCCCCC(=O)NO)cc2c1`, the IC50 amounted to 720 nM in the test on HT-1080, 6.5 nM in test [1] and 1200 nM in the test with MDA-MB-435.

For the molecule `COc1ccc2cc(C(=O)NCCCCCCC(=O)NO)[nH]c2c1`, the IC50 is 340 nM in the test on HT-1080, 9.9 nM in test [1] and 230 nM in the test with MDA-MB-435.

`O=C(CCCCCNC(=O)c1ccc2[nH]ccc2c1)NO` yielded an IC50 in test [1] of 17 nM.

For `O=C(CCCCCCNC(=O)c1cc2cc(Br)ccc2[nH]1)NO`, the IC50 in the test with HT-1080 amounted to 480 nM; in test [1], 3.5 nM; in the test on MDA-MB-435 it was 470 nM.

Turning to `COc1cccc2cc(C(=O)NCCCCCCC(=O)NO)oc12`, the IC50 in the test with HT-1080 is 710 nM; in test [1], 17 nM; in the test with MDA-MB-435 it was 320 nM.

`O=C(CCCCCNC(=O)c1ccc2cc[nH]c2c1)NO` registered an IC50 in test [1] of 36.4 nM.

Regarding `O=C(CCCCCCNC(=O)c1cc2cc(F)ccc2[nH]1)NO`, the IC50 was 480 nM in the test with HT-1080, 5.4 nM in test [1] and 250 nM in the test on MDA-MB-435.

With `Cc1ccc2[nH]c(C(=O)NCCCCCCC(=O)NO)cc2c1`, the IC50 in the test on HT-1080 was 200 nM; in test [1], 6.3 nM; in the test on MDA-MB-435, 170 nM.

Molecule `O=C(CCCCCNC(=O)c1cccc2cc[nH]c12)NO` showed an IC50 in test [1] of 37.6 nM. This lies in the double-digit nanomolar range.

In the case of `O=C(CCCCCCNC(=O)c1cc2cc(OC(F)(F)F)ccc2[nH]1)NO`, the values for the IC50 (in the test on HT-1080; in test [1]; in the test with MDA-MB-435) were 890 nM, 16 nM and 300 nM, respectively.

In turn, `O=C(CCCCCCNC(=O)c1ccc2cc[nH]c2c1)NO` registered an IC50 in test [1] of 56.5 nM.

For `O=C(CCCCCCNC(=O)c1cccc2cc[nH]c12)NO`, the IC50 in test [1] worked out at 41 nM.

In test [1], `O=C(CCCCCCNC(=O)c1cccc2[nH]ccc12)NO` gave an IC50 of 80.3 nM.

For the molecule `Cc1c(C(=O)NCCCCCCC(=O)NO)oc2ccccc12`, the IC50 in test [1] was 12.5 nM.
